In PMC12022973, “Proteomimetic Strategy for the Modulation of Intrinsically Disordered Protein MYC” (Journal of the American Chemical Society, 2025):
Starred links: 1 amine or outer side, 2 acyl side, 3 side chain; linkers in the order of their positions; H or OH if unused. Positions of bridges follow the written chain, without caps; N, C: chain ends. Residues, ends and D or L forms follow the SMILES beside them. Chains are numbered I, II in the order given. *: point of attachment. FITC = O=C1OC2(c3ccc(O)cc3Oc3cc(O)ccc32)c2ccc(NC(=S)*)cc21; X1 = c1cc(C[*:1])ccc1COCc1ccc(C[*:2])cc1; βAla = NCCC(=O)O

Columns and labels:
[1] = molecular target: T1, recombinant human MYC^353–437 protein (His6-MYC^353–437) (Homo sapiens, UniProt P01106); assay: Fluorescence polarization direct binding of fluorescein-labeled CHDs to His6-MYC353-437; conditions: FP direct binding; 15 nM FITC-labeled peptide; His6-MYC serial dilutions from 10 μM; 1X PBS, 1 mM DTT, 5% glycerol, 0.1% pluronic acid, pH 6.7; 25 °C; triplicate; MYC aggregates above 5 μM; read-out: Binding Affinity MYC^353-436, Kd
T1 construct: recombinant human MYC^353–437 protein; made in house; host or cells: E. coli BL21(DE3), pET151-D-TOPO-cMyc vector
T1 sequence (P01106 368-452): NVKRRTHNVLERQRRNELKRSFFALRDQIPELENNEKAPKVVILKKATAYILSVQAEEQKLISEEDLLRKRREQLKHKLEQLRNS
Protocol: pET151-D-TOPO-cMyc vector was kindly provided by Dr. Edward Prochownik from the
Department of Pediatrics at UPMC Children’s Hospital of Pittsburgh. Expression and purification
of Myc353-437 were performed using an established protocol with minor modifications.7 BL21(DE3)
cells were used to express recombinant Myc353-437 protein. Bacteria were grown at 37 °C to OD600
of 0.8 followed by 1 mM IPTG induction and 16-18h growth at RT. Cells were harvested via
centrifugation at 4,000 rpm at 4 °C and the pellet was resuspended in 10 mL of lysis buffer (8 M
urea, 100 mM NaH2PO4, 10 mM Tris HCl, pH 8) supplemented with protease inhibitor cocktail
(PierceTM Protease Inhibitor Tablets) and benzonase nuclease. Suspensions were sonicated on
ice using a Branson Cell Disruptor 200 and centrifuged at 12,000 rpm for 45 min at 4 °C. Clarified
lysate was applied to a column containing pre-equilibrated HisPur Ni-NTA Superflow Agarose
(ThermoFisher Scientific) for overnight at 4 °C. The resin beads were washed with 10 mL of
additional lysis buffer followed by three washes of 10 mL wash buffer (8 M urea, 100 mM
NaH2PO4, 10 mM Tris HCl, 10 mM imidazole). The target protein was eluted with elution buffer (8
M urea, 100 mM NaH2PO4, 10 mM Tris HCl, 250 mM imidazole) and buffer exchanged into 150
mM NaCl, 50 mM Tris HCl, 5% glycerol, pH 6.7. Protein was concentrated by ultra-filtration (3000
MWCO; Amicon Ultra-15 Centrifugal Filter units from EMD Millipore) followed by TEV cleavage
(1:100 w/w of protease to target protein) in 150 mM NaCl, 50 mM Tris HCl, 5% glycerol, pH 6.7
for 24 hrs at 4 °C. The cleaved protein is further purified by reverse-phase HPLC (gradient 10-60
acetonitrile/water with 0.1% TFA over 35 min) to remove TEV protease and un-cleaved protein.
Purified Myc353-437 was lyophilized and stored at -20 °C. Myc353-437 identity was characterized by
(§1) Fluorescence Polarization Binding Assay
(§2) The relative affinities of FITC-CHDMax-1 to His6-Myc353-436 and full-length His6-Max were
(§3) determined using fluorescence polarization-based direct binding assay. The polarization
(§4) experiments were performed using a DTX 880 Multimode Detector (Beckman) at 25 °C with
(§5) excitation and emission wavelengths of 485 and 525 nm, respectively. Each polarization
(§6) experiment was performed in a 96-well round bottom plate (Greiner) in assay buffer: 1X PBS, 1
(§7) mM DTT, 5% glycerol, 0.1% pluronic acid, pH 6.7. The binding affinity (KD) values reported for
(§8) each peptide are from experiments performed in triplicate. Raw values were fit to a sigmoidal
(§9) dose-response nonlinear regression model in GraphPad Prism 6.0.
(§10) All binding experiments with FITC-labeled peptides to His6-Myc353-436 or His6-Max were performed
(§11) under the same conditions. Briefly, serial dilutions of His6-Myc353-436 and His6-Max were made
(§12) from 10 μM into 15 nM of FITC-labeled peptide in assay buffer. KD was determined using the
(§13) KD1 = (RT*(1-FSB) + LST*FSB2)/FSB-LST
(§14) RT = Total concentration of His6-Myc353-436 or His6-Max
(§15) LST = Total concentration of FITC-labeled peptide
(§16) FSB = Fraction of bound FITC-labeled peptide

[2] = molecular target: T2, full-length His6-Max (MAX^1-160) (Homo sapiens, UniProt P61244); assay: Fluorescence polarization direct binding to His6-MAX; conditions: FP direct binding; 15 nM FITC-labeled peptide; His6-MAX from 10 μM; 1X PBS, 1 mM DTT, 5% glycerol, 0.1% pluronic acid, pH 6.7; 25 °C
T2 construct: N.B. (MAX^1-160)
T2 sequence (P61244 whole entry): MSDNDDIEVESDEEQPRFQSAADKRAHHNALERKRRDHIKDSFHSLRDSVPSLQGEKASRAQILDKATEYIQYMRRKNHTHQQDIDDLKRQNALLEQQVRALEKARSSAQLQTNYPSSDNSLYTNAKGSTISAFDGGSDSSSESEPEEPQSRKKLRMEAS
Protocol: as §1, §2, §3, §4, §5, §6, §7, §8, §9, §10, §11, §12, §13, §14, §15, §16

Kd [1] [nM] | CHD^Max-1 Binding Affinity, Kd (MAX^1-160) [2] | SMILES
880 ± 53 |  | CC[C@H](C)[C@H](NC(=O)[C@H](CCCCN)NC(=O)[C@H](CCC(=O)O)NC(=O)[C@H](CCCNC(=N)N)NC(=O)[C@H](CC(C)C)NC(C)=O)C(=O)N[C@@H](C)C(=O)N[C@H](C(=O)N[C@@H](CC(C)C)C(=O)N[C@@H](CCC(N)=O)C(=O)N[C@@H](Cc1c[nH]c2ccccc12)C(=O)N[C@@H](CSCc1ccc(COCc2ccc(CSC[C@H](NC(=O)[C@H](CC(C)C)NC(=O)[C@H](CCC(=O)O)NC(=O)[C@H](CCCNC(=N)N)NC(=O)[C@@H](NC(=O)[C@H](CCCNC(=N)N)NC(=O)[C@H](Cc3c[nH]c4ccccc34)NC(=O)[C@H](CCC(N)=O)NC(=O)[C@H](Cc3c[nH]cn3)NC(=O)[C@@H](NC(=O)[C@H](CCC(=O)O)NC(=O)[C@@H](NC(=O)[C@H](CCCNC(=N)N)NC(=O)[C@H](C)NC(=O)[C@H](CCC(=O)O)NC(=O)[C@H](CC(C)C)NC(C)=O)[C@@H](C)CC)[C@@H](C)O)[C@@H](C)CC)C(=O)N[C@@H](CCC(=O)O)C(N)=O)cc2)cc1)C(=O)N[C@H](C(=O)N[C@@H](CCC(=O)O)C(=O)N[C@@H](CCC(=O)O)C(=O)N[C@@H](CC(C)C)C(=O)N[C@@H](CCCNC(=N)N)C(=O)N[C@@H](CCCCN)C(N)=O)[C@@H](C)CC)[C@@H](C)O [CHD^Max-2] (I: Ac-LEARIETHQWRIRELCE-NH2 / II: Ac-LREKIATLQWCIEELRK-NH2; linker I:16-II:11 via X1)
> 5000 |  | CC[C@H](C)[C@H](NC(=O)[C@H](CCC(=O)O)NC(=O)[C@H](Cc1c[nH]c2ccccc12)NC(=O)[C@H](CCC(N)=O)NC(=O)[C@H](C)NC(=O)[C@@H](NC(=O)[C@H](CCC(=O)O)NC(=O)[C@H](C)NC(=O)[C@H](CCCCN)NC(=O)[C@H](CCCNC(=N)N)NC(=O)[C@H](CCCNC(=N)N)NC(=O)[C@H](CC(C)C)NC(C)=O)[C@@H](C)O)C(=O)N[C@@H](CCC(=O)O)C(=O)N[C@@H](CCC(=O)O)C(=O)N[C@@H](CC(C)C)C(=O)N[C@@H](CSCc1ccc(COCc2ccc(CSC[C@H](NC(=O)[C@H](Cc3c[nH]c4ccccc34)NC(=O)[C@H](CCC(N)=O)NC(=O)[C@H](CC(C)C)NC(=O)[C@@H](NC(=O)[C@H](C)NC(=O)[C@H](C)NC(=O)[C@H](CCCCN)NC(=O)[C@H](CCC(=O)O)NC(=O)[C@H](CCCNC(=N)N)NC(=O)[C@H](CC(C)C)NC(=O)CCNC(=S)Nc3ccc4c(c3)C(=O)OC43c4ccc(O)cc4Oc4cc(O)ccc43)[C@@H](C)O)C(=O)N[C@H](C(=O)N[C@@H](CCC(=O)O)C(=O)N[C@@H](CCC(=O)O)C(=O)N[C@@H](CC(C)C)C(=O)N[C@@H](CCCNC(=N)N)C(=O)N[C@@H](CCCCN)C(N)=O)[C@@H](C)CC)cc2)cc1)C(N)=O [FITC–CHD^Max-3] (I: {FITC-βAla}-LREKAATLQWCIEELRK-NH2 / II: Ac-LRRKAETAQWEIEELC-NH2; linker I:11-II:16 via X1)
350 ± 17 | no binding was observed | CC[C@H](C)[C@H](NC(=O)[C@H](CCCCN)NC(=O)[C@H](CCC(=O)O)NC(=O)[C@H](CCCNC(=N)N)NC(=O)[C@H](CC(C)C)NC(=O)CCNC(=S)Nc1ccc2c(c1)C(=O)OC21c2ccc(O)cc2Oc2cc(O)ccc21)C(=O)N[C@@H](C)C(=O)N[C@H](C(=O)N[C@@H](CC(C)C)C(=O)N[C@@H](CCC(N)=O)C(=O)N[C@@H](Cc1c[nH]c2ccccc12)C(=O)N[C@@H](CSCc1ccc(COCc2ccc(CSC[C@H](NC(=O)[C@H](CC(C)C)NC(=O)[C@H](CCC(=O)O)NC(=O)[C@H](CCC(=O)O)NC(=O)[C@@H](NC(=O)[C@H](CCC(=O)O)NC(=O)[C@H](Cc3c[nH]c4ccccc34)NC(=O)[C@H](CCC(N)=O)NC(=O)[C@H](Cc3c[nH]cn3)NC(=O)[C@@H](NC(=O)[C@H](CCC(=O)O)NC(=O)[C@H](CC(N)=O)NC(=O)[C@H](CCCCN)NC(=O)[C@H](CCCNC(=N)N)NC(=O)[C@H](CCCNC(=N)N)NC(=O)[C@H](CC(C)C)NC(C)=O)[C@@H](C)O)[C@@H](C)CC)C(N)=O)cc2)cc1)C(=O)N[C@H](C(=O)N[C@@H](CCC(=O)O)C(=O)N[C@@H](CCC(=O)O)C(=O)N[C@@H](CC(C)C)C(=O)N[C@@H](CCCNC(=N)N)C(=O)N[C@@H](CCCCN)C(N)=O)[C@@H](C)CC)[C@@H](C)O [FITC–CHD^Max-1] (I: {FITC-βAla}-LREKIATLQWCIEELRK-NH2 / II: Ac-LRRKNETHQWEIEELC-NH2; linker I:11-II:16 via X1)
> 5000 |  | CC[C@H](C)[C@H](NC(=O)[C@H](CCC(=O)O)NC(=O)[C@H](Cc1c[nH]c2ccccc12)NC(=O)[C@H](CCC(N)=O)NC(=O)[C@H](C)NC(=O)[C@@H](NC(=O)[C@H](CCC(=O)O)NC(=O)[C@H](C)NC(=O)[C@H](CCCCN)NC(=O)[C@H](CCCNC(=N)N)NC(=O)[C@H](CCCNC(=N)N)NC(=O)[C@H](CC(C)C)NC(C)=O)[C@@H](C)O)C(=O)N[C@@H](CCC(=O)O)C(=O)N[C@@H](CCC(=O)O)C(=O)N[C@@H](CC(C)C)C(=O)N[C@@H](CSCc1ccc(COCc2ccc(CSC[C@H](NC(=O)[C@H](Cc3c[nH]c4ccccc34)NC(=O)[C@H](CCC(N)=O)NC(=O)[C@H](CC(C)C)NC(=O)[C@@H](NC(=O)[C@H](C)NC(=O)[C@H](C)NC(=O)[C@H](CCCCN)NC(=O)[C@H](CCC(=O)O)NC(=O)[C@H](CCCNC(=N)N)NC(=O)[C@H](CC(C)C)NC(C)=O)[C@@H](C)O)C(=O)N[C@H](C(=O)N[C@@H](CCC(=O)O)C(=O)N[C@@H](CCC(=O)O)C(=O)N[C@@H](CC(C)C)C(=O)N[C@@H](CCCNC(=N)N)C(=O)N[C@@H](CCCCN)C(N)=O)[C@@H](C)CC)cc2)cc1)C(N)=O [CHD^Max-3] (I: Ac-LREKAATLQWCIEELRK-NH2 / II: Ac-LRRKAETAQWEIEELC-NH2; linker I:11-II:16 via X1)
